Results from ChEMBL document CHEMBL5050844 (2019).

Tests used:
[1] = Induction of anti-CD3 antibodies-stimulated human CD8+ T cell activation at 10 uM assessed fold increase in CD69 expression measured by flow cytometry analysis; assay type: functional, T cell line; further: reference of the scale not given here
[2] = Induction of activation of human CD56+ CD3- NK cells co-cultured with human K562 cells in 1:1 ratio and assessed as increase in TNF-alpha secretion at 2.5 uM measured by ELISA assay; assay type: functional, Natural killer cell
[3] = Induction of anti-CD3/CD28 antibodies-stimulated human T cell activation at 0.3 uM assessed fold increase in CD25 expression measured by ELISA assay; assay type: functional, T cell line
[4] = Induction of anti-CD3 antibodies-stimulated human CD8+ T cell activation at 1.11 uM assessed fold increase in CD69 expression measured by flow cytometry analysis; assay type: functional, T cell line; further: reference of the scale not given here
[5] = Induction of anti-CD3 antibodies-stimulated human T cell activation at 8 uM assessed fold increase in CD25 expression measured by ELISA assay; assay type: functional, T cell line; further: reference of the scale not given here
[6] = Induction of anti-CD3 antibodies-stimulated human CD8+ T cell activation at 10 uM assessed fold increase in cell proliferation measured by flow cytometry analysis; assay type: functional, T cell line; further: reference of the scale not given here
[7] = Induction of anti-CD3/CD28 antibodies-stimulated human CD8+ T cell activation at 1.11 uM assessed fold increase in CD69 expression measured by flow cytometry analysis; assay type: functional, T cell line
[8] = Induction of activation of human CD56+ CD3- NK cells co-cultured with human K562 cells in 1:1 ratio and assessed as increase in TNF-alpha secretion at 10 uM measured by ELISA assay; assay type: functional, Natural killer cell
[9] = Induction of anti-CD3/CD28 antibodies-stimulated human T cell activation at 1.11 uM assessed fold increase in IFN-gamma secretion measured by ELISA assay; assay type: functional, T cell line
[10] = Induction of anti-CD3 antibodies-stimulated human CD4+ T cell activation at 1.11 uM assessed fold increase in CD69 expression measured by flow cytometry analysis; assay type: functional, T cell line; further: reference of the scale not given here
[11] = Induction of anti-CD3 antibodies-stimulated human T cell activation at 1 uM assessed fold increase in IL-2 secretion measured by ELISA assay; assay type: functional, T cell line; further: reference of the scale not given here
[12] = Induction of anti-CD3/CD28 antibodies-stimulated human CD8+ T cell activation at 1.11 uM assessed fold increase in cell proliferation measured by flow cytometry analysis; assay type: functional, T cell line
[13] = Induction of anti-CD3 antibodies-stimulated human exhausted T cell activation assessed fold increase in IL-2 secretion measured by ELISA assay; assay type: functional, T cell line; further: reference of the scale not given here
[14] = Induction of activation of human CD56+ CD3- NK cells co-cultured with human K562 cells in 1:1 ratio and assessed as increase in IFN-gamma secretion at 10 uM measured by ELISA assay; assay type: functional, Natural killer cell
[15] = Induction of anti-CD3 antibodies-stimulated human T cell activation at 10 uM assessed fold increase in IFN-gamma secretion measured by ELISA assay; assay type: functional, T cell line; further: reference of the scale not given here
[16] = Induction of allogenic human T cell activation at 10 uM assessed fold increase in cell proliferation; assay type: functional, T cell line
[17] = Induction of anti-CD3/CD28 antibodies-stimulated human anergic T cell activation at 0.37 uM assessed fold increase in IFN-gamma secretion measured by ELISA assay; assay type: functional, T cell line
[18] = Induction of anti-CD3/CD28 antibodies-stimulated human CD4+ T cell activation at 1.11 uM assessed fold increase in CD69 expression measured by flow cytometry analysis; assay type: functional, T cell line
[19] = Induction of anti-CD3 antibodies-stimulated human T cell activation at 1 uM assessed fold increase in CD25 expression measured by ELISA assay; assay type: functional, T cell line; further: reference of the scale not given here
[20] = Induction of activation of human CD56+ CD3- NK cells co-cultured with human K562 cells in 1:1 ratio and assessed as increase in TNF-alpha secretion at 0.625 uM measured by ELISA assay; assay type: functional, Natural killer cell
[21] = Induction of anti-CD3 antibodies-stimulated human T cell activation at 10 uM assessed fold increase in GM-CSF secretion measured by ELISA assay; assay type: functional, T cell line; further: reference of the scale not given here
[22] = Induction of anti-CD3/CD28 antibodies-stimulated human CD4+ T cell activation at 1.11 uM assessed fold increase in cell proliferation measured by flow cytometry analysis; assay type: functional, T cell line
[23] = system: B cell; assay: Induction of anti-IgM-stimulated human CD20+ B cell activation at 10 to 1000 uM assessed as increase in CD69 expression measured as mean fluorescence intensity AUC by flow cytometry analysis; assay type: functional, cell-based; details: dose 10-1000 µM
[24] = Induction of anti-CD3 antibodies-stimulated human CD4+ T cell activation at 10 uM assessed fold increase in CD69 expression measured by flow cytometry analysis; assay type: functional, T cell line; further: reference of the scale not given here
[25] = Induction of activation of human CD56+ CD3- NK cells co-cultured with human K562 cells in 1:1 ratio and assessed as increase in IFN-gamma secretion at 2.5 uM measured by ELISA assay; assay type: functional, Natural killer cell
[26] = Induction of anti-CD3/CD28 antibodies-stimulated human T cell activation at 4 uM assessed fold increase in IL-2 secretion measured by ELISA assay; assay type: functional, T cell line
[27] = Induction of anti-CD3/CD28 antibodies-stimulated human anergic T cell activation at 10 uM assessed fold increase in IFN-gamma secretion measured by ELISA assay; assay type: functional, T cell line
[28] = Induction of anti-CD3/CD28 antibodies-stimulated human T cell activation at 10 uM assessed fold increase in TNF-alpha secretion measured by ELISA assay; assay type: functional, T cell line
[29] = Induction of anti-CD3 antibodies-stimulated human exhausted CD8+ T cell activation assessed fold increase in CTLA4 expression measured by flow cytometry analysis; assay type: functional, T cell line; further: reference of the scale not given here
[30] = Induction of anti-CD3 antibodies-stimulated human T cell activation at 8 uM assessed fold increase in IL-2 secretion measured by ELISA assay; assay type: functional, T cell line; further: reference of the scale not given here
[31] = Induction of anti-CD3/CD28 antibodies-stimulated human T cell activation at 10 uM assessed fold increase in IFN-gamma secretion measured by ELISA assay; assay type: functional, T cell line
[32] = Induction of anti-CD3/CD28 antibodies-stimulated human CD4+ T cell activation at 10 uM assessed fold increase in CD69 expression measured by flow cytometry analysis; assay type: functional, T cell line
[33] = Induction of anti-CD3 antibodies-stimulated human T cell activation at 1.11 uM assessed fold increase in TNF-alpha secretion measured by ELISA assay; assay type: functional, T cell line; further: reference of the scale not given here
[34] = Induction of anti-CD3/CD28 antibodies-stimulated human CD4+ T cell activation at 10 uM assessed fold increase in cell proliferation measured by flow cytometry analysis; assay type: functional, T cell line
[35] = Induction of anti-CD3 antibodies-stimulated human T cell activation at 1.11 uM assessed fold increase in GM-CSF secretion measured by ELISA assay; assay type: functional, T cell line; further: reference of the scale not given here
[36] = Induction of anti-CD3 antibodies-stimulated human T cell activation at 1.11 uM assessed fold increase in IFN-gamma secretion measured by ELISA assay; assay type: functional, T cell line; further: reference of the scale not given here
[37] = Induction of anti-CD3/CD28 antibodies-stimulated human CD8+ T cell activation at 10 uM assessed fold increase in cell proliferation measured by flow cytometry analysis; assay type: functional, T cell line
[38] = Induction of anti-CD3/CD28 antibodies-stimulated human anergic T cell activation at 1.11 uM assessed fold increase in IFN-gamma secretion measured by ELISA assay; assay type: functional, T cell line

SMILES	fold change (FC) [1]	fold change (FC) [2]	fold change (FC) [3]	fold change (FC) [4]	fold change (FC) [5]	fold change (FC) [6]	fold change (FC) [7]	fold change (FC) [8]	fold change (FC) [9]	fold change (FC) [10]	fold change (FC) [11]	fold change (FC) [12]	fold change (FC) [13]	fold change (FC) [14]	fold change (FC) [15]	fold change (FC) [16]	fold change (FC) [17]	fold change (FC) [18]	fold change (FC) [19]	fold change (FC) [20]	also measured
Cn1cnnc1C(F)(F)[C@](C)(F)c1cccc(N2Cc3c(cc(CN4CC[C@@H](C#N)C4)cc3C(F)(F)F)C2=O)c1	1.401	2.01	1.01	1.201	>=1.001	>4	1.201	>=5	>4	1.401	0.151	3.01	<=2.5	>=5	3.01	<=2	<=2.5	1.201	0.801	1.01	fold change (FC) [21]: 2.01; fold change (FC) [22]: >4; AUC [23]: 1.01; fold change (FC) [24]: >1.601; fold change (FC) [25]: >=5; fold change (FC) [26]: >=7.5; fold change (FC) [27]: >4.01; fold change (FC) [28]: 2.01; fold change (FC) [29]: >1.61; fold change (FC) [30]: >=0.201; fold change (FC) [31]: >4; fold change (FC) [32]: 1.401; fold change (FC) [33]: <=1.5; fold change (FC) [34]: >4; fold change (FC) [35]: 1.51; fold change (FC) [36]: 2.01; fold change (FC) [37]: >4; fold change (FC) [38]: 2.51
C[C@H](Cc1nncn1C)c1cccc(N2Cc3c(cccc3C(F)(F)F)C2=O)c1.Cl	<=1.2	1.01	1.31	<=1.2	>=1.001	<=2	<=1.2	<=1	3.01	<=1.2	0.051	<=2	<=2.5	2.01	<=2	<=2	<=2.5	<=1.2	0.601	1.01	fold change (FC) [21]: <=1.5; fold change (FC) [22]: <=2; AUC [23]: 1.01; fold change (FC) [24]: <=1.2; fold change (FC) [25]: 1.01; fold change (FC) [26]: 5; fold change (FC) [27]: <=2.5; fold change (FC) [28]: 1.51; fold change (FC) [29]: 1.41; fold change (FC) [30]: >=0.201; fold change (FC) [31]: >4; fold change (FC) [32]: 1.201; fold change (FC) [33]: <=1.5; fold change (FC) [34]: 3.01; fold change (FC) [35]: <=1.5; fold change (FC) [36]: <=2; fold change (FC) [37]: 2.01; fold change (FC) [38]: 2.51
C[C@H](Cc1nncn1C)c1cccc(NC(=O)c2n[nH]c3c2CCC3)c1	<=1.2	1.01	1.01	1.401	0.801	2.01	1.201	1.01	<=2	>1.601	0.101	3.01	<=2.5	2.01	<=2	<=2	<=2.5	1.401	0.601	1.01	fold change (FC) [21]: 1.51; fold change (FC) [22]: >4; AUC [23]: 0.5; fold change (FC) [24]: 1.201; fold change (FC) [25]: <=1; fold change (FC) [26]: 2.51; fold change (FC) [27]: <=2.5; fold change (FC) [28]: 2.01; fold change (FC) [29]: <=1.4; fold change (FC) [30]: 0.151; fold change (FC) [31]: 2.01; fold change (FC) [32]: 1.201; fold change (FC) [33]: <=1.5; fold change (FC) [34]: >4; fold change (FC) [35]: <=1.5; fold change (FC) [36]: 2.01; fold change (FC) [37]: 2.01; fold change (FC) [38]: <=2.5
C[C@H](Cc1nncn1C)c1cccc(NC(=O)c2nc(C(F)(F)F)c[nH]2)c1	1.201	2.01	1.01	<=1.2	>=1.001	>4	<=1.2	2.01	<=2	1.201	0.051	2.01	>3.01	2.01	2.01	<=2	<=2.5	1.201	0.801	1.01	fold change (FC) [21]: 2.01; fold change (FC) [22]: 2.01; AUC [23]: < 0.5; fold change (FC) [24]: 1.401; fold change (FC) [25]: 1.01; fold change (FC) [26]: 2.51; fold change (FC) [27]: 2.51; fold change (FC) [28]: 2.01; fold change (FC) [29]: <=1.4; fold change (FC) [30]: >=0.201; fold change (FC) [31]: 2.01; fold change (FC) [32]: 1.401; fold change (FC) [33]: <=1.5; fold change (FC) [34]: >4; fold change (FC) [35]: 1.51; fold change (FC) [36]: <=2; fold change (FC) [37]: 3.01; fold change (FC) [38]: <=2.5
